Measurements reported in US12612360B2 (Sanofi, priority 2020, dated 2026).

Target: T1, ERα (Homo sapiens, UniProt P03372)
T1 construct: host or cells: MCF7
T1 sequence (P03372 1-595): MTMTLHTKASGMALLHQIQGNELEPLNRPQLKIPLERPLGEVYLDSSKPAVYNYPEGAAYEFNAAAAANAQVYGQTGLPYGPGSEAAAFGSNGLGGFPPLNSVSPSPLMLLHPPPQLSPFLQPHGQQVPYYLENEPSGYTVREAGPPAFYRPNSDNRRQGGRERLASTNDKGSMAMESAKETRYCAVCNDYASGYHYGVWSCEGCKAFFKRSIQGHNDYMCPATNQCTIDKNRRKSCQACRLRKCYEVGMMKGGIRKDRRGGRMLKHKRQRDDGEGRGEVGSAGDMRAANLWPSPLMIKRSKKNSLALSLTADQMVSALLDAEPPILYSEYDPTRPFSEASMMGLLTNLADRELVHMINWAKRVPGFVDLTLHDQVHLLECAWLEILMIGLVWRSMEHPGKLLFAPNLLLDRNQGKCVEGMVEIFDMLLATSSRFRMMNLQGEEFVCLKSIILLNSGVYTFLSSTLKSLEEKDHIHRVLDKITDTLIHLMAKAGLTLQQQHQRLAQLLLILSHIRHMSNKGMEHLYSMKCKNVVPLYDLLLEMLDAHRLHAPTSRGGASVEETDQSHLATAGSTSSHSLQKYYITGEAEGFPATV
Assay: Estrogen receptor degradation activity: breast cancer cell ERα in cell western assay (MCF7 cells)
Type: cell-based
Conditions: for % Degradation At 0.3 μM: 4 hours, relative to fulvestrant 0.1 μM positive control; for DC50: 4 hours post compound addition, concentration which degrades 50% of the estrogen receptor, read-out: Degradation IC50
Outline: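 In-cell western readout: ERα immunofluorescence (Alexa 488) normalised to DNA signal (Syto-64) after formalin fixation. Compounds dosed for 4 h on MCF7 cells in stripped-serum, phenol-red-free medium over nine 1:5 steps, 0.3 to […] final; fulvestrant 0.1 μM control. IC50 in nM for 50% ERα degradation.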

Row | SMILES | % Degradation At 0.3 μM | DC50
1 | O=C(O)c1ccc2c(c1)CCCC(c1cccc3c1CCC3(F)F)=C2c1ccc(C=C2CN(CCC(F)F)C2)cc1 [Example 164, 8-(1,1-difluoro-2,3-dihydro-1H-inden-4-yl)-9-(4-((1-(3,3-difluoropropyl)azetidin-3-ylidene)methyl)phenyl)-6,7-dihydro-5H-benzo[7]annulene-3-carboxylic acid] | 93% | 1.4 nM
2 | Cc1cc(F)ccc1C1=C(c2ccc(C=C3CN(CCCF)C3)cc2C(F)(F)F)c2ccc(C(=O)O)cc2CCC1 [Example 138, 8-(4-fluoro-2-methylphenyl)-9-(4-((1-(3-fluoropropyl)azetidin-3-ylidene)methyl)-2-(trifluoromethyl)phenyl)-6,7-dihydro-5H-benzo[7]annulene-3-carboxylic acid] | 95% | 1.8 nM
3 | O=C(O)c1ccc2c(c1)CCCC(c1ncc(Cl)cc1C(F)(F)F)=C2c1ccc(C=C2CN(CCC(F)F)C2)cc1 [Example 125, 8-(5-chloro-3-(trifluoromethyl)pyridin-2-yl)-9-(4-((1-(3,3-difluoropropyl)azetidin-3-ylidene)methyl)phenyl)-6,7-dihydro-5H-benzo[7]annulene-3-carboxylic acid] | 91% | 0.7 nM
4 | O=C(O)c1ccc2c(c1)CCCC(c1ccc(F)cc1F)=C2c1ccc(C=C2CN(CCCF)C2)c(F)c1F [Example 43, 9-(2,3-difluoro-4-((1-(3-fluoropropyl)azetidin-3-ylidene)methyl)phenyl)-8-(2,4-difluorophenyl)-6,7-dihydro-5H-benzo[7]annulene-3-carboxylic acid] | 92% | 0.4 nM
5 | Cc1cccc(C2=C(c3ccc(C=C4CN(CCC(F)(F)F)C4)cc3)c3ccc(C(=O)O)cc3CCC2)c1C(F)(F)F [Example 110, 8-(3-methyl-2-(trifluoromethyl)phenyl)-9-(4-((1-(3,3,3-trifluoropropyl)azetidin-3-ylidene)methyl)phenyl)-6,7-dihydro-5H-benzo[7]annulene-3-carboxylic acid] | 93% | 2.9 nM
6 | O=C(O)c1ccc2c(c1)CCCC(c1ccc3c(c1F)CCC3)=C2c1ccc(C=C2CN(CCC(F)F)C2)cc1 [Example 161, 9-(4-((1-(3,3-difluoropropyl)azetidin-3-ylidene)methyl)phenyl)-8-(4-fluoro-2,3-dihydro-1H-inden-5-yl)-6,7-dihydro-5H-benzo[7]annulene-3-carboxylic acid] | 92% | 1.2 nM
7 | O=C(O)c1ccc2c(c1)CCCC(c1ccc(F)cc1F)=C2c1c(F)cc(C=C2CN(CCCF)C2)cc1F [Example 52, 9-(2,6-difluoro-4-((1-(3-fluoropropyl)azetidin-3-ylidene)methyl)phenyl)-8-(2,4-difluorophenyl)-6,7-dihydro-5H-benzo[7]annulene-3-carboxylic acid] | 97% | 0.3 nM
8 | Cc1cc(C2=C(c3ccc(F)cc3C)CCCc3cc(C(=O)O)ccc32)ccc1C=C1CN(CCCF)C1.Cl [Example 44, 8-(4-fluoro-2-methylphenyl)-9-(4-((1-(3-fluoropropyl)azetidin-3-ylidene)methyl)-3-methylphenyl)-6,7-dihydro-5H-benzo[7]annulene-3-carboxylic acid hydrochloride] | 91% | 0.4 nM

Continued by falling DC50, values first:

Row | % Degradation At 0.3 μM | DC50 | SMILES
9 | 100% | 120 nM | Cl.O=C(O)c1ccc2c(c1)SCCC(c1ccc(Cl)cc1Cl)=C2c1ccc(C=C2CN(CCCF)C2)cc1 [Example 115, 4-(2,4-dichlorophenyl)-5-[4-[[1-(3-fluoropropyl)azetidin-3-ylidene]methyl]phenyl]-2,3-dihydro-1-benzothiepine-8-carboxylic acid; hydrochloride]
10 | 89% | 1.8 nM | CC1CCC(C2=C(c3ncc(C=C4CN(CCCF)C4)cc3F)c3ccc(C(=O)O)cc3CCC2)CC1 (mixture of isomers) [Example 188, 9-(3-fluoro-5-((1-(3-fluoropropyl)azetidin-3-ylidene)methyl)pyridin-2-yl)-8-(4-methylcyclohexyl)-6,7-dihydro-5H-benzo[7]annulene-3-carboxylic acid]
11 | 93% | 1.1 nM | O=C(O)c1ccc2c(c1)CCCC(c1ccc(Cl)cc1C(F)(F)F)=C2c1ccc(C=C2CN(CCC(F)F)C2)cc1 [Example 128, 8-(4-chloro-2-(trifluoromethyl)phenyl)-9-(4-((1-(3,3-difluoropropyl)azetidin-3-ylidene)methyl)phenyl)-6,7-dihydro-5H-benzo[7]annulene-3-carboxylic acid]
12 | 88% | 1 nM | O=C(O)c1ccc2c(c1)CCCC(c1ccc(Cl)c(C(F)(F)F)c1)=C2c1ccc(C=C2CN(CCCF)C2)cc1 [Example 5, 8-(4-chloro-3-(trifluoromethyl)phenyl)-9-(4-((1-(3-fluoropropyl)azetidin-3-ylidene)methyl)phenyl)-6,7-dihydro-5H-benzo[7]annulene-3-carboxylic acid]
13 | 92% | 0.6 nM | COc1nccc(C2=C(c3ccc(C=C4CN(CCCF)C4)cc3)c3ccc(C(=O)O)cc3CCC2)c1F [Example 2, 8-(3-fluoro-2-methoxypyridin-4-yl)-9-(4-((1-(3-fluoropropyl)azetidin-3-ylidene)methyl)phenyl)-6,7-dihydro-5H-benzo[7]annulene-3-carboxylic acid]
14 | 99% | 0.5 nM | Cc1cc(F)ccc1C1=C(c2ccc(C=C3CN(CCCF)C3)c(C)c2F)c2ccc(C(=O)O)cc2CCC1 [Example 67, 8-(4-fluoro-2-methylphenyl)-9-(2-fluoro-4-((1-(3-fluoropropyl)azetidin-3-ylidene)methyl)-3-methylphenyl)-6,7-dihydro-5H-benzo[7]annulene-3-carboxylic acid]
15 | 94% | 0.5 nM | Cc1cccc(C2=C(c3ccc(C=C4CN(CCCF)C4)cc3)c3ccc(C(=O)O)cc3CCC2)c1Cl [Example 76, 8-(2-chloro-3-methylphenyl)-9-(4-((1-(3-fluoropropyl)azetidin-3-ylidene)methyl)phenyl)-6,7-dihydro-5H-benzo[7]annulene-3-carboxylic acid]
16 | 93% | 0.4 nM | O=C(O)c1ccc2c(c1)CCCC(c1ccc(F)cc1F)=C2c1cc(F)c(C=C2CN(CCCF)C2)c(F)c1 [Example 59, 9-(3,5-difluoro-4-((1-(3-fluoropropyl)azetidin-3-ylidene)methyl)phenyl)-8-(2,4-difluorophenyl)-6,7-dihydro-5H-benzo[7]annulene-3-carboxylic acid]
17 | 94% | 0.4 nM | Cc1c(F)ccc(C2=C(c3ccc(C=C4CN(CCCF)C4)cc3)c3ccc(C(=O)O)cc3CCC2)c1C [Example 87, 8-(4-fluoro-2,3-dimethylphenyl)-9-(4-((1-(3-fluoropropyl)azetidin-3-ylidene)methyl)phenyl)-6,7-dihydro-5H-benzo[7]annulene-3-carboxylic acid]
18 | 87% | 0.3 nM | O=C(O)c1ccc2c(c1)CCCC(c1ccc(F)cc1C1CC1)=C2c1ccc(C=C2CN(CCCF)C2)cc1 [Example 40, 8-(2-cyclopropyl-4-fluorophenyl)-9-(4-((1-(3-fluoropropyl)azetidin-3-ylidene)methyl)phenyl)-6,7-dihydro-5H-benzo[7]annulene-3-carboxylic acid]
